From PMC6099102, “Effect of the Nature of Donor Atoms on the Thermodynamic, Kinetic and Relaxation Properties of Mn(II) Complexes Formed With Some Trisubstituted 12-Membered Macrocyclic Ligands” (Frontiers in Chemistry, 2018)
Read-outs that look alike come from different tables or passages of the source.

Legend:
[1] = Longitudinal water proton relaxivity (r1p) of the Mn(II) complexes; assay type: physicochemical
Method: The relaxometric data were collected using a Bruker Minispec MQ20 NMR relaxometer. […] A datapoint plotted on figures represents an average of 5–6 T1 measurements (Figures S3–S9 in Supplementary Material). The data were fitted by using the molar r1p relaxivity value of the MnCl2 ([…] at 0.49 T and 25 °C). The equilibrium constants were calculated using the PSEQUAD program (Zékány and Nagypál, [1985]).
The longitudinal water proton relaxation rates (r1 = 1/T1-1/Tw) were measured at 20 MHz with a Bruker Minispec MQ-20 relaxometer (Bruker Biospin, Germany). Samples were thermostated by using a circulating water bath at 25.0 ± 0.2 °C. The longitudinal relaxation times (T1) were measured by the inversion-recovery method (180° − τ − 90°), averaging 5–6 data points collected for each concentration point obtained from 14 different τ values (τ values ranging between 0 to at least 6 times the expected T1). The relaxivity of the complexes was determined by titrating a nearly 1.0 mM ligand solution with a Mn(II) stock solution at pH = 7.22–7.43 (50 mM HEPES buffer, I = 0.15 M NaCl, 25 °C). Under these conditions, the only Mn(II) ion containing species present in solution is the [Mn(L)], which was supported by the r1 vs. pH profiles. The relaxivity of the complex was determined as the slope of the strait line obtained by plotting 1/T1p values as a function of Mn(II) concentration for samples with [Ligand] > [Mn(II)]. The relaxivity of [Mn(DOTP)]^6− and [Mn(DO3P)]^4− was determined in the pH range of 10.0–11.0 and 8.5–9.3, respectively where mainly the [Mn(DO3P)]^4− and [Mn(DOTP)]^6− complex exists in solution (Figures S4 and S9 in Supplementary Material).
The relaxivity (r1p, mM^−1s^−1) is defined as the longitudinal water proton relaxation rate in a solution containing 1.0 mM concentration of the paramagnetic species. It characterizes the efficiency of a paramagnetic metal chelate to enhance the solvent proton relaxation rate at a given magnetic field (usually 20 MHz) and temperature. The inner-sphere contribution to relaxivity is directly proportional to the number of metal bound water molecules (q), and therefore, relaxivity values may provide some useful information on the hydration state of paramagnetic complexes of similar molecular weights and electronic relaxation times. […] The r1p values of the Mn(II) complexes formed with heptadentate 12-membered macrocyclic ligands were determined at 0.5 T field strength and 25 °C and reported in Table 4 along with some relaxivity data published for the complexes of hexa-, hepta- and octadentate ligands. […] Below these pH ranges the phosphonate moieties undergo protonation, which further increases the relaxivity (2.60–2.90 mM^−1s^−1 values were observed near pH = 7.4, see Supplementary Material). Similar increase in the relaxivity (to 3.20 mM^−1s^−1 at 20 MHz, 37 °C) is observed for the [Mn(DOTA)]^2− complex upon its protonation and formation of the thermodynamically stable diprotonated [Mn(H2DOTA)] complex that exists as a non-hydrated chelate both in solution and in the solid state (Wang and Westmoreland, [2009]). The relaxivity of the diprotonated species at t → 0 time point was determined from the extrapolation of the relaxivity vs. time data collected after acidification of the samples containing the complexes. The X-ray crystallographic structure of [Mn(H2DOTA)] indicates the protonation of two trans carboxylate moieties (e.g., the coordination around the metal ion is similar to that observed in [Mn(trans-DO2A)] as determined by DFT calculations). Thus, the relaxivity of the diprotonated [Mn(H2DOTA)] and [Mn(H2DOTMA)] complexes is expected to be similar to that of [Mn(trans-DO2A)] (when q = 0). The value obtained by us is considerably higher, which highlights the importance of prototropic exchange as a useful tool to improve the relaxivity of the complexes (however, it has to be underlined that the protonation of the complex generally leads to a decrease in kinetic inertness).

[2] = cited from earlier work
[3] = Dissociation kinetics of the Mn(II) complexes (acid catalyzed dissociation, metal or ligand exchange reactions); assay type: physicochemical; conditions: I = 0.15 M NaCl, 25 °C; for t1/2 pH = 7.4 cM = 10^−5 M: half-life of dissociation calculated for pH 7.4, 10 μM exchanging metal ion; for t1/2 0.1 M HCl: half-life of dissociation calculated for 0.1 M H+
Method: The dissociation reactions were followed by UV-vis spectrophotometry at 269 nm for the pyclen derivatives or at 300 nm for other complexes in the pH range of 3.6–5.0 for the exchange reactions with Cu(II) and up to pH = 6.0 when Zn(II) was used as a ligand scavenger. The acid catalyzed dissociation reactions were performed in the HCl concentration range of 0.05–1.0 M. The concentration of the complexes in the samples was 0.25 mM, while the concentration of the exchanging metal ion in the metal initiated transchelation reactions was 10–40 times higher to ensure pseudo-first-order conditions. Relaxometry was used to follow the transchelation reactions of [Mn(DOTAM)]^2+, [Mn(DO3AM^H)]^2+, [Mn(DO3A)]^−, [Mn(PCTA)]^− and [Mn(ODO3A)]^− with Cu(II)/Zn(II) ions in the pH range of 3.6–5.5 (Figures S17–S19 in Supplementary Material). The concentration of the complexes in these samples was set to 1.0–2.0 mM to achieve relatively large change during the dissociation reaction. […] The temperature was maintained at 25 °C and the ionic strength of the solutions was kept constant at 0.15 M with NaCl. N,N′-dimethyl- (DMP) and N-methyl-piperazine (NMP) buffers (log K2H = 4.18 and 4.90 at 25 °C and I = 0.15 M NaCl, respectively) were used at 0.05 M concentration to keep the pH constant. The pseudo-first-order rate constants (kobs) were calculated by fitting the absorbance or relaxivity-time data pairs to Equation (1) (1) Xt=(X0-Xe)e^-kobst+Xe where Xt, X0, and Xe are the absorbance or relaxivity at time t, at the start and at equilibrium, respectively. The calculations were performed with the computer program Micromath Scientist, version 2.0 (Salt Lake City, UT, USA) using a standard least-squares procedure.
The kinetic inertness of the Mn(II) complexes is the other important parameter for the complexes considered for use in vivo. The inertness of Mn(II) complexes formed with trisubstituted 12-memberd macrocyclic ligands were characterized either by studying the rates of acid catalyzed dissociation or by studying transmetallation reactions occurring between the complexes and a suitable exchanging metal ion such as Zn(II) or Cu(II). The demetallation reactions of labile complexes were performed at high pH by following the ligand exchange reactions with trans-CDTA and DTPA ligands. The demetallation reactions were studied in the presence of a large Cu(II)/Zn(II)/trans-CDTA/DTPA excess or by using high acid concentration in order to ensure pseudo-first-order conditions (Equation 6). Scheme 1 outlines all the possible dissociation pathways for the Mn(II) complexes. […] The reactions of the released Mn(II) and L ligand with the exchanging L' and M' reactants are assumed to be very rapid.
The rate of dissociation can be expressed by the Equation (6), where kobs is the pseudo-first-order rate constant and [Mn(L)]t is the total concentration of the species containing [Mn(L)] complex. The [Mn(L)]t will differ slightly depending on the experimental conditions (in the presence of a large metal or ligand excess). As [Mn(L)]t = [Mn(L)] + [Mn(HL)] + [Mn(H2L)] + [Mn(L)M] + [Mn(L)(L')] + [Mn(HL)(L')] for reactions performed at high pH (in the pH range of 3.0–5.0 often applied in Cu(II) exchange reactions) will involve fewer protonated species while the acid catalyzed dissociation reactions run in the strongly acidic media (0.1–1.0 M acid concentration range) predominantly contain protonated species ([Mn(L)]t = [Mn(L)]+[Mn(HL)]+[Mn(H2L)]). (6) -d[MnL]t/dt=kobs[MnL]t
By taking into account the various complex species and the possible reaction pathways as well as the protonation and stability constants of the reactive intermediates, the following equation (Equation 7) can be derived to describe the rates of dissociation. […]

[4] = 0.5 T field strength, 25 °C and pH = 7.4
[5] = ligand exchange reaction with trans-CDTA^4− or DTPA^5− in the pH range 8-9.5

O=C([O-])CN1CCNCCN(CC(=O)[O-])CCN(CC(=O)[O-])CC1.[Mn+2] [[Mn(DO3A)]^−]
r1p [1, 4]: 1.18 to 1.31 mM⁻¹ s⁻¹ | r1p ([2]; ref Rolla et al. ([2013])): 1.30 mM⁻¹ s⁻¹ | k1 (proton-assisted dissociation) [3]: 0.45 ± 0.03 M⁻¹ s⁻¹ | k2 (proton-assisted dissociation) [3]: (3.2 ± 0.3) × 10^2 M^−2s^−1 | t1/2 pH = 7.4 cM = 10^−5 M [3]: 1.1 × 10^4 h

NC(=O)CN1CCNCCN(CC(N)=O)CCN(CC(N)=O)CC1.[Mn+2] [[Mn(DO3AM^H)]^2+]
r1p [1, 4]: 1.33 mM⁻¹ s⁻¹ | k1 (proton-assisted dissociation) [3]: 0.94 ± 0.02 M⁻¹ s⁻¹ | t1/2 0.1 M HCl [3]: 0.123 min | t1/2 pH = 7.4 cM = 10^−5 M [3]: 5.2 × 10^3 h

O=P([O-])([O-])CN1CCNCCN(CP(=O)([O-])[O-])CCN(CP(=O)([O-])[O-])CC1.[Mn+2] [[Mn(DO3P)]^4−]
r1p ([1]; 0.5 T, 25 °C, determined in the pH range of 8.5–9.3): 2.23^[b] mM^−1s^−1 | relaxivity ([1]; near pH = 7.4, protonated phosphonate moieties): 2.60 to 2.90 mM⁻¹ s⁻¹ | t1/2 pH = 7.4 cM = 10^−5 M [3]: 3 × 10^−3 h | k1 (proton-assisted dissociation) [3, 5]: (2.4 ± 0.2) × 10^5 M^−1s^−1 | k2 (proton-assisted dissociation) [3, 5]: (2.2 ± 0.3) × 10^14 M^−2s^−1

NC(=O)CN1CCN(CC(N)=O)CCN(CC(N)=O)CCN(CC(N)=O)CC1.[Mn+2] [[Mn(DOTAM)]^2+]
r1p [1, 4]: 1.11 mM⁻¹ s⁻¹ | r1p ([2]; 0.5 T field strength (20 MHz) and 37 °C, ref Wang and Westmoreland ([2009])): 0.96 mM⁻¹ s⁻¹ | k1 (proton-assisted dissociation) [3]: (1.6 ± 0.03) × 10^−2 M^−1s^−1 | t1/2 0.1 M HCl [3]: 7.17 min

O=C([O-])CN1CCOCCN(CC(=O)[O-])CCN(CC(=O)[O-])CC1.[Mn+2] [[Mn(ODO3A)]^−]
r1p [1, 4]: 1.40 mM⁻¹ s⁻¹ | k1 (proton-assisted dissociation) [3]: 27 ± 2 M⁻¹ s⁻¹ | k2 (proton-assisted dissociation) [3]: (1.5 ± 0.3) × 10^5 M^−2s^−1 | t1/2 pH = 7.4 cM = 10^−5 M [3]: 1.8 × 10^2 h

O=C([O-])CNC(=O)CN1CCN(CC(=O)NCC(=O)[O-])Cc2cccc(n2)CN(CC(=O)NCC(=O)[O-])CC1.[Mn+2] [[Mn(PC3AM^Gly)]^−]
r1p [1, 4]: 1.44 mM⁻¹ s⁻¹ | t1/2 0.1 M HCl [3]: 5.83 min | k1 (proton-assisted dissociation) ([3]; proton-assisted dissociation of the [Mn(H3L)] complex): (1.64 ± 0.02) × 10^−2[c] M^−1s^−1 | k0 (spontaneous dissociation) ([3]; spontaneous dissociation of the [Mn(H3L)] complex): (3.4 ± 0.2) × 10^−4[c] s^−1

NC(=O)CN1CCN(CC(N)=O)Cc2cccc(n2)CN(CC(N)=O)CC1.[Mn+2] [[Mn(PC3AM^H)]^2+]
r1p [1, 4]: 1.21 mM⁻¹ s⁻¹ | k1 (proton-assisted dissociation) [3]: (1.07 ± 0.01) × 10^−2 M^−1s^−1 | t1/2 0.1 M HCl [3]: 10.8 min
